Results taken from patent US4195171A, “Derivatives of an antibiotic XK-62-2 and process for the production thereof” (Abbott Laboratories, priority 1975, dated 1980).
Where two headings read alike, the source gives them in different places.

How the values were obtained:
Assay in all cases: Antibacterial spectrum, MIC by agar dilution method
Type in all cases: cell-based
[1] = tested on: Escherichia coli Juhl; details: agar dilution, pH 7.2, read-out: Minimum Inhibitory Concentration
From the text: (§1) XK-62-2, 1-N-[L-(-)-α-hydroxy-γ-aminobutyryl] XK-62-2, Compounds (I-1), (I-2), (II-1) and (II-2) against various Gram-negative and Gram-positive bacteria determined by agar dilution method at pH 7.2.

[2] = tested on: Escherichia coli T-2; details: T2, pH 7.2, read-out: Minimum Inhibitory Concentration
From the text: as §1

[3] = tested on: Escherichia coli T-5; details: T5, agar dilution, pH 7.2, read-out: Minimum Inhibitory Concentration
From the text: as §1

[4] = tested on: Klebsiella pneumoniae No. 8045; details: pH 7.2, read-out: Minimum Inhibitory Concentration
From the text: as §1

[5] = tested on: Proteus mirabilis 1287; details: pH 7.2, read-out: Minimum Inhibitory Concentration
From the text: as §1

[6] = tested on: Proteus morganii KY 4298; details: Morganella morganii, KY4298; agar dilution, pH 7.2; read-out: Minimum Inhibitory Concentration
From the text: as §1

[7] = tested on: Proteus rettgeri KY 4288; details: Providencia rettgeri, KY4288, pH 7.2, read-out: Minimum Inhibitory Concentration
From the text: as §1

[8] = tested on: Proteus vulgaris 6897; details: pH 7.2, read-out: Minimum Inhibitory Concentration
From the text: as §1

[9] = tested on: Pseudomonas aeruginosa BMH 10; details: BMH10, pH 7.2, read-out: Minimum Inhibitory Concentration
From the text: as §1

[10] = tested on: Pseudomonas aeruginosa BMH 1; details: BMH1, pH 7.2, read-out: Minimum Inhibitory Concentration
From the text: as §1

[11] = tested on: Pseudomonas aeruginosa E-2; details: E2, agar dilution, pH 7.2, read-out: Minimum Inhibitory Concentration
From the text: as §1

[12] = tested on: Pseudomonas aeruginosa NC-5; details: NC5, agar dilution, pH 7.2, read-out: Minimum Inhibitory Concentration
From the text: as §1

[13] = tested on: Pseudomonas aeruginosa No. 12; details: pH 7.2, read-out: Minimum Inhibitory Concentration
From the text: as §1

[14] = tested on: Salmonella enteritidis G-14; details: Salmonella enterica, agar dilution, pH 7.2, read-out: Minimum Inhibitory Concentration
From the text: as §1

[15] = tested on: Salmonella typhimurium E-9; details: Salmonella enterica, pH 7.2, read-out: Minimum Inhibitory Concentration
From the text: as §1

[16] = tested on: Sarcina lutea ATCC 9341; details: Micrococcus luteus, ATCC9341, pH 7.2, read-out: Minimum Inhibitory Concentration
From the text: as §1

[17] = tested on: Serratia sp T-55
From the text: as §1

[18] = tested on: Shigella sonnei ATCC 9290; details: ATCC9290, pH 7.2, read-out: Minimum Inhibitory Concentration
From the text: as §1

[19] = tested on: Staphylococcus aureus 209 P; details: pH 7.2, read-out: Minimum Inhibitory Concentration
From the text: as §1

[20] = tested on: Staphylococcus aureus Smith; details: pH 7.2, read-out: Minimum Inhibitory Concentration
From the text: as §1

[21] = tested on: Streptococcus faecalis ATCC 10541; details: Enterococcus faecalis, ATCC10541, pH 7.2, read-out: Minimum Inhibitory Concentration
From the text: as §1

[22] = tested on: bacillus subtilis ATCC 6633; details: ATCC6633, pH 7.2, read-out: Minimum Inhibitory Concentration
From the text: as §1

[23] = tested on: Escherichia coli KY 8348; details: KY8348, pH 7.2, strain produces gentamicin acetyltransferase Type I, read-out: Minimum Inhibitory Concentration
From the text: as §1
(§2) ^2 produces gentamicin acetyltransferase Type I

[24] = tested on: Pseudomonas aeruginosa KY 8511; details: KY8511, pH 7.2, strain produces gentamicin acetyltransferase Type I, read-out: Minimum Inhibitory Concentration
From the text: as §1, §2

[25] = tested on: Escherichia coli KY 8320; details: KY8320, pH 7.2, strain produces neomycinkanamycin phosphotransferase Type I, read-out: Minimum Inhibitory Concentration
From the text: as §1
(§3) ^3 produces neomycinkanamycin phosphotransferase Type I

[26] = tested on: Escherichia coli KY 8349; details: KY8349, pH 7.2, strain produces neomycinkanamycin phosphotransferase Type I, read-out: Minimum Inhibitory Concentration
From the text: as §1, §3

[27] = tested on: Pseudomonas aeruginosa KY 8518; details: KY8518, pH 7.2, strain produces neomycinkanamycin phosphotransferase Type I, read-out: Minimum Inhibitory Concentration
From the text: as §1, §3

[28] = tested on: Escherichia coli KY Z-338; details: KYZ338, pH 7.2, strain produces gentamicin adenyltransferase, read-out: Minimum Inhibitory Concentration
From the text: as §1
(§4) ^4 produces gentamicin adenyltransferase

[29] = tested on: Klebsiella pneumoniae Y-58; details: Y58, pH 7.2, strain produces gentamicin adenyltransferase, read-out: Minimum Inhibitory Concentration
From the text: as §1, §4

[30] = tested on: Klebsiella pneumoniae Y-60; details: Y60, pH 7.2, strain produces gentamicin adenyltransferase, read-out: Minimum Inhibitory Concentration
From the text: as §1, §4

[31] = tested on: Escherichia coli KY 8321; details: KY8321, pH 7.2, strain produces gentamicin adenyltransferase and neomycinkanamycin phosphotransferase Type II, read-out: Minimum Inhibitory Concentration
From the text: as §1
^5 produces gentamicin adenyltransferase and neomycinkanamycin
phosphotransferase Type II

[32] = tested on: Pseudomonas aeruginosa KY 8512; details: KY8512, pH 7.2, strain produces neomycinkanamycin phosphotransferase Type I and Type II, read-out: Minimum Inhibitory Concentration
From the text: as §1
^6 produces neomycinkanamycin phosphotransferase Type I and Type II

[33] = tested on: Providencia sp. 164; details: pH 7.2, strain produces gentamicin acetyltransferase Type II, read-out: Minimum Inhibitory Concentration
From the text: as §1
^9 produces gentamicin acetyltransferase Type II

Measured: MIC

CNCC1CCC(N)C(OC2C(N)CC(NC(=O)C(O)CN)C(OC3OCC(C)(O)C(NC)C3O)C2O)O1 (racemic) [1-N-(DL-α-hydroxy-β-aminopropionyl) XK-62-2, reference compound]
12.5 µg/mL: [5] | [8] | [21]
0.2 µg/mL: [20] | [22] | [23] | [28]
1.56 µg/mL: [7] | [10] | [17]; T55, agar dilution, pH 7.2, read-out: Minimum Inhibitory Concentration | [24] | [27] | [32]
3.12 µg/mL: [11] | [12]
6.25 µg/mL: [14] | [33]
0.1 µg/mL: [26]
0.78 µg/mL: [1] | [3] | [4] | [6] | [13] | [18]
0.4 µg/mL: [2] | [9] | [15] | [16] | [19] | [25] | [29] | [30] | [31]

CC1(O)COC(OC2C(NC(=O)C(O)CN)CC(N)C(OC3OC(CN)CCC3N)C2O)C(O)C1N (racemic) [Compound I-1, 3"-N, 6'-N-didemethyl-1-N-(DL-α-hydroxy-β-aminopropionyl) XK-62-2]
6.25 µg/mL: [8] | [14] | [33]
3.12 µg/mL: [17]; T55, pH 7.2, read-out: Minimum Inhibitory Concentration | [18]
0.2 µg/mL: [19] | [20]
0.78 µg/mL: [7] | [10] | [12] | [15] | [16] | [24] | [25] | [27] | [28] | [29] | [30] | [32]
0.1 µg/mL: [22]
0.4 µg/mL: [4] | [9] | [13] | [23] | [26]
1.56 µg/mL: [1] | [2] | [3] | [6] | [11] | [31]
12.5 µg/mL: [5] | [21]
